Columns and labels:
[1] = system: MLS ovarian cancer cells; assay: DNA synthesis by [3H]-thymidine incorporation, MLS cells; type: cell-based, human
Description: (§1) Cells were cultured in MEM supplemented with 10% FCS and antibiotics. Cells were grown to subconfluence and then treated with various hormones or agents as described by Somjen et al. (Somjen et al., 1998). The cells were characterized in terms of expression of mRNAs for estrogen […] by real time PCR, and the results are summarized in Table 1. N87, 320DM and H295R cells expressed mRNAs for both ERs. The ratio of ERα to ERβ was 1:8.5, 1:30 and 1:1.8 in N87, 320DM and H295R cells, respectively. Ovarian A2780 and prostate C4-24 cells expressed mainly mRNA for ERβ, and the ratio of ERβ to ERα was 300:1 and 70:1, respectively. MLS ovarian cells expressed mRNA only for ERβ. The ratio of ERα to ERβ in T47D cells has been reported to be 9:1.
(§2) [^3H]-Thymidine incorporation into DNA was used for the assessment of the various effects (proliferative or inhibitory) of various isoflavones, isoflavone derivatives and known cytotoxic drugs in the above-mentioned cells. Cells were grown until subconfluence using conditions described in Somjen et al. (Somjen et al., 1998) and then treated with various agents for 24 or 48 h as indicated. At the end of incubation, [^3H]-thymidine was added for two hours. Cells were then treated with 10% ice-cold trichloroacetic (TCA) for 5 min and washed twice with 5% TCA and then with cold ethanol. The cellular layer was dissolved in 0.3 ml of 0.3 M NaOH, aliquots were taken for counting radioactivity, and [^3H]-thymidine incorporation into DNA was calculated.

[2] = system: A2780 ovarian cancer cells; assay: DNA synthesis by [3H]-thymidine incorporation, A2780 cells; type: cell-based, human; settings: compound at 3 μM
Description: as §1, §2

[3] = system: H295R adrenocarcinoma cells; assay: DNA synthesis by [3H]-thymidine incorporation, H295R cells; type: cell-based, human
Description: as §1, §2

[4] = system: human prostate C4-2B cancer cells; assay: DNA synthesis by [3H]-thymidine incorporation, C4-2B cells; type: cell-based
Description: as §1, §2

[5] = system: Human umbilical vascular smooth muscle cells (VSMC); assay: DNA synthesis by [3H]-thymidine incorporation, normal VSMC; type: cell-based; settings: compound at 3 μM
Description: Human umbilical vascular smooth muscle cells (VSMC) sensitive to estrogen, were grown in culture as described above, and used only at passages 1-3, when expression of smooth muscle actin was clearly demonstrable (Somjen et al. 2000). The ratio of the expression of mRNA for ERα to ERβ was 2.7:1.
as §2

[6] = system: K-562 leukemia cell line; assay: NCI In Vitro Cell Line Screening, K-562; type: cell-based; settings: Homo sapiens, K562, read-out: log10 GI50 (converted)
Description: (§3) An in vitro cell line screen for the t-boc derivative of daidzein (compound 9) was performed at the NCI/NIH US utilizing the In Vitro Cell Line Screening Project (IVCLSP) (National Cancer Institute, Developmental Therapeutics Program, Information Technology Branch, Rockville, Md., USA).
(§4) The operation of this screen utilized 60 different human tumor cell lines, representing leukemia, melanoma and cancers of the lung, colon, brain, ovary, breast, prostate, and kidney. […] Using these algorithms, it is possible to assign a putative mechanism of action to a test compound, or to determine that the response pattern is unique and not similar to that of any of the standard prototype compounds included in the NCI database.
(§5) To facilitate analysis of the data, three endpoints were calculated for each cell line: The GI50 value, which is the negative log10 of the concentration required to inhibit the growth of that cell line by 50% (relative to untreated cells); TGI, the negative log10 of minimum concentration that causes total growth inhibition; and LC50, which reflects the negative log10 concentration needed to kill 50% of the cells. A Mean Graph was used as a way of easily visualizing the results from all 60 cell lines at once. To generate this graph, the mean of GI50 values across all 60 cell lines was calculated. […]

[7] = system: MDA-MB-435 breast cancer cell line; assay: NCI In Vitro Cell Line Screening, MDA-MB-435; type: cell-based; settings: Homo sapiens, read-out: log10 GI50 (converted)
Description: as §3, §4, §5

[8] = system: T-47D breast cancer cell line; assay: NCI In Vitro Cell Line Screening, T-47D; type: cell-based; settings: Homo sapiens, T47D, read-out: log10 GI50 (converted)
Description: as §3, §4, §5

[9] = system: SK-MEL-5 melanoma cell line; assay: NCI In Vitro Cell Line Screening, SK-MEL-5; type: cell-based; settings: Homo sapiens, read-out: log10 GI50 (converted)
Description: as §3, §4, §5

[10] = system: EKVX non small lung cancer cell line; assay: NCI In Vitro Cell Line Screening, EKVX; type: cell-based; settings: Homo sapiens, read-out: log10 GI50 (converted)
Description: as §3, §4, §5

[11] = system: MLS ovarian xenografts; assay: MLS ovarian xenografts in nude mice; type: in vivo; settings: 9 iv 400 μg/mouse every other day
Source text: Female CD1 nude mice (8-week old, ˜30 g) were housed and handled with free access to food and water in the animal facility according to the guidelines (1996) of the Institutional Animal Care and Use Committee of the Weizmann Institute of Science, Rehovot, Israel.
Thirty female nude mice (8 weeks old) were inoculated sub-cutaneously (sc) with MLS ovarian carcinoma cells (1.5×10^6/mouse). Ten days later, when the tumors were palpable, the mice were randomly divided into 3 groups (8-10 mice/group). The mice in each group were iv injected every other day either with a vehicle (Neowater, a solubilization enhancer, 0.1 ml), daunomycin dissolved in Neowater (200 μg/mouse in 0.1 ml vehicle, total dose during treatment 1 mg/mouse), or compound 9 dissolved in Neowater (400 μg/mouse in 0.1 ml vehicle, total dose during treatment 2 mg/mouse). During treatment, body weight was recorded to monitor toxicity of the treatment, and the tumors were measured with an external caliper. Tumor volume was calculated using the formula length×width×height×π/6. Statistical significance was assessed using student's t test, and differences were considered significant at p<0.05.

CC(C)(C)OC(=O)NCCCCCCNC(=O)COc1ccc2c(=O)c(-c3ccc(O)cc3)coc2c1 [Compound 9] was tested, and the “incubation time at which plateau of inhibition of DNA synthesis was reached” value [1] was 72 h, the “DNA synthesis, ratio experimental/control (E/C)” value ([1]; 9 (0.3 μM) + E2 30 nM) was 0.96 ± 0.24 and the “DNA synthesis, ratio experimental/control (E/C)” value ([1]; 9 (0.3 μM) + E2 0.3 μM) was 2.39 ± 0.07. The “DNA synthesis (% of control)” value ([1]; 9 at 0.3 μM + 25 μM Z-VADFK) was 132%, the “DNA synthesis, ratio experimental/control (E/C)” value ([1]; 9 at 0.3 μM + Z-VADFK (25 μM)) was 1.32 ± 0.26 and the “suppression of the proliferative effect of estradiol” value ([1]; 9 at 0.3 μM + estradiol 0.3 μM) was “could not suppress its proliferative effect”. The “DNA synthesis, ratio experimental/control (E/C)” value ([1]; 9 at 0.3 μM alone (Table 3)) was 0.61 ± 0.10, the “DNA synthesis, ratio experimental/control (E/C)” value ([1]; 9 at 0.3 μM alone (Table 4)) was 0.74 ± 0.11 and the “DNA synthesis, ratio experimental/control (E/C)” value ([1]; 9 at 3 μM + Z-VADFK 25 μM) was 0.76 ± 0.16. The “effect of apoptosis inhibitor on inhibition by 9” value ([1]; 9 at 3 μM + Z-VADFK 25 μM) was “capable of reversing the inhibitory effect of 9 on DNA synthesis”, the “DNA synthesis, ratio experimental/control (E/C)” value ([1]; 9 at 3 μM alone (Table 4)) was 0.44 ± 0.14 and the “effect on [3H]-thymidine incorporation into DNA” value ([1]; 15 to 6000 nmol/l) was “dose dependent decreases”. For the same molecule, the inhibition at 0.3 µM ([1]; Homo sapiens, 9 at 0.3 μM alone) was 26%, the inhibition at 3 µM ([1]; Homo sapiens, 9 at 3 μM alone) was 56% and the “DNA synthesis, ratio experimental/control (E/C)” value ([1]; compound at 3 μM) was 0.03 ± 0.07. For the same molecule, the “DNA synthesis (% of control)” value ([1]; estradiol 30 nM + 0.3 μM compound 9) was 96%, the “DNA synthesis, ratio experimental/control (E/C)” value [2] was 0.1 ± 0.15 and the inhibition at 3 µM ([3]; Homo sapiens, NCI-H295R, at 3 μM, read-out: inhibition of DNA synthesis / growth) was 92%. For the same molecule, the “DNA synthesis, ratio experimental/control (E/C)” value ([3]; compound at 3 μM) was 0.08 ± 0.21, the inhibition at 0.03 µM ([4]; Homo sapiens, at 30 nM) was 30% and the inhibition at 0.3 µM ([4]; Homo sapiens, at 300 nM) was ~50%. The “DNA synthesis, ratio experimental/control (E/C)” value ([4]; compound at 0.3 μM) was 0.28 ± 0.2, the “DNA synthesis, ratio experimental/control (E/C)” value [5] was 0.73 ± 0.13 and the GI50 [6] was 646 nM. It also gave a GI50 [7] of 1820 nM, a GI50 [8] of 1350 nM and a GI50 [9] of 631 nM. For the same molecule, the GI50 [10] was 1950 nM, the “weight reduction or death of treated mice” value [11] was “No weight reduction or death” and the “weight reduction or death of treated mice” value ([11]; listed as t-Boc daidzein derivative) was “did not cause death or weight loss”.

Source: patent publication US8338624B2, “Isoflavone derivatives and uses thereof” (Yeda Research and Development Co., Ltd., priority 2007, dated 2012)
